These are literature values, as cited in publication PMC9054096 (RSC Advances, 2020).

For one data set, the target named is Human galectin-3 (Homo sapiens, UniProt P17931). As to conditions: read-out: Galectin-3 affinity (Kd); reference compound.
The target in a further data set is Human galectin-1 (Homo sapiens, UniProt P09382). As to conditions: read-out: Galectin-1 affinity (Kd); reference compound.
The target of the next data set is Human galectin-9N (Homo sapiens, UniProt O00182). As to conditions: read-out: Galectin-9N affinity (Kd); reference compound.
The next data set has as its target T1, Human galectin-4N (Homo sapiens, UniProt P56470).
T1 sequence (P56470 19-150 limits assumed): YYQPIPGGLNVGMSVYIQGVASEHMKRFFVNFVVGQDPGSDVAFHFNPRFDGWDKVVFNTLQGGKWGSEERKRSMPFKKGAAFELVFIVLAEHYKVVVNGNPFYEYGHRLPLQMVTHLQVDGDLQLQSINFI
As to conditions: read-out: Galectin-4N affinity (Kd); reference compound.

The target in another data set is T2, Human galectin-4C (Homo sapiens, UniProt P56470).
T2 sequence (P56470 194-323 limits assumed): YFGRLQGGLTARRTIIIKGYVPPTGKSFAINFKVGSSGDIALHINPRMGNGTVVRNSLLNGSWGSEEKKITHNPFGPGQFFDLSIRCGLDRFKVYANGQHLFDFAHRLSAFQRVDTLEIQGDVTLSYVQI
As to conditions: read-out: Galectin-4C affinity (Kd); reference compound.

The target of the next data set is Human galectin-9C (Homo sapiens, UniProt O00182). As to conditions: read-out: Galectin-9C affinity (Kd); reference compound.
Human galectin-9C, sequence (O00182 227-355 limits assumed): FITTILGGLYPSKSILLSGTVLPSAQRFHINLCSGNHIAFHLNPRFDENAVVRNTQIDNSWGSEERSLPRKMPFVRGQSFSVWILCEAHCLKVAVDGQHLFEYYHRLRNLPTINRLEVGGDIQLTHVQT

Human galectin-3, sequence (P17931 whole entry): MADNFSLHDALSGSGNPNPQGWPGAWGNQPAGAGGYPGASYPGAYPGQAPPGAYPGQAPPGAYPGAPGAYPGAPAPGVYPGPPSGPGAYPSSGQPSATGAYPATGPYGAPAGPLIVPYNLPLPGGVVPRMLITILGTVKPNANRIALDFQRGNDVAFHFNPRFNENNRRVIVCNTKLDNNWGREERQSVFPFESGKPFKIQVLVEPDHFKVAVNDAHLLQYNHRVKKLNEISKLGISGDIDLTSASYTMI
Human galectin-9N, sequence (O00182 17-148 limits assumed): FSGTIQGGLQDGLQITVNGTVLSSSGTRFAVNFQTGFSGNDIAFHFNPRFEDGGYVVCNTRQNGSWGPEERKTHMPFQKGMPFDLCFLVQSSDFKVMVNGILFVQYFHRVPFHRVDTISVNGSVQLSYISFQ
Human galectin-1, sequence (P09382 whole entry): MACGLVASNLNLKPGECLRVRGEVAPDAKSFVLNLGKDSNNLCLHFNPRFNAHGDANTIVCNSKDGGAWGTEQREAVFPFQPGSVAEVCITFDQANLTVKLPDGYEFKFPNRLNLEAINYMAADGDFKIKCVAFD

As for `O=C(O)c1ccc2ccc(CO[C@@H]3[C@@H](O)[C@@H](Sc4ccc(Cl)c(Cl)c4)O[C@H](CO)[C@@H]3O)nc2c1` [Compound 2, 3,4-dichlorophenyl 3-O-(7-carboxy-quinolin-2-yl-methyl)-1-thio-α-D-galactopyranoside], the Kd is 1.27 ± 0.07 µM at Human galectin-3; 48 ± 4.4 µM at Human galectin-1; 2.06 ± 0.09 µM on Human galectin-9N; 43 ± 7.1 µM at Human galectin-4N; 43 ± 5.7 µM at Human galectin-4C; 14 ± 1.3 µM at Human galectin-9C.
